Assay results published in patent US9914735B2, “Heteroaryl Syk inhibitors” (Boehringer Ingelheim International GmbH, priority 2014, dated 2018).
Like-named read-outs stand apart in the source and are kept apart here.

Columns and labels:
FLT3 = FLT3 (Homo sapiens (Human), UniProt P36888); experiment: FLT3 kinase test (Z'-LYTE); format: biochemical
Summary of the method: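 Z'-LYTE FRET format; kinase reaction started with ATP, run 1 h at room temperature, then 1 h development before stop reagent. Controls without compound, without kinase, and phosphopeptide as 100% phosphorylation reference; values reported in M.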

[1] = Human liver microsomal stability test; format: in vitro ADME; conditions: human liver microsomes; Qh = liver blood flow
[2] = biological target: Recombinant human Aurora B (amino acids 1-344) (Homo sapiens (Human), UniProt Q96GD4); experiment: Aurora B kinase test (ADP Glo luminescence); format: biochemical
Sequence of Recombinant human Aurora B (amino acids 1-344) (Q96GD4 whole entry, the tested form may be a part): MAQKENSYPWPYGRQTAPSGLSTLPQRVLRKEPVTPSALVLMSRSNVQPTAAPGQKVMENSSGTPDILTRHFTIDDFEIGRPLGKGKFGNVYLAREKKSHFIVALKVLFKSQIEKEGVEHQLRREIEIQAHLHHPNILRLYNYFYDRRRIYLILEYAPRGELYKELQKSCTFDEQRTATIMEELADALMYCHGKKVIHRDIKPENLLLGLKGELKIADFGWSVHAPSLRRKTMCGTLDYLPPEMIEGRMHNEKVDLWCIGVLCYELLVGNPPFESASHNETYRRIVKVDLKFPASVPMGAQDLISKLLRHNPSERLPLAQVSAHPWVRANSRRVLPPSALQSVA

[3] = biological target: Recombinant human Syk (amino acids 342-635), GST-Syk kinase fusion protein (Homo sapiens (Human), UniProt P43405); experiment: Syk kinase test (Kinase Glo luminescence); format: biochemical
Human GSK3beta = Human GSK3beta (Homo sapiens (Human), UniProt P49841); experiment: GSK 3beta kinase test (Z'-LYTE); format: biochemical; conditions: read-out: IC50 in μM (GSK3beta-Inhibition)
Sequence of Human GSK3beta (P49841 whole entry): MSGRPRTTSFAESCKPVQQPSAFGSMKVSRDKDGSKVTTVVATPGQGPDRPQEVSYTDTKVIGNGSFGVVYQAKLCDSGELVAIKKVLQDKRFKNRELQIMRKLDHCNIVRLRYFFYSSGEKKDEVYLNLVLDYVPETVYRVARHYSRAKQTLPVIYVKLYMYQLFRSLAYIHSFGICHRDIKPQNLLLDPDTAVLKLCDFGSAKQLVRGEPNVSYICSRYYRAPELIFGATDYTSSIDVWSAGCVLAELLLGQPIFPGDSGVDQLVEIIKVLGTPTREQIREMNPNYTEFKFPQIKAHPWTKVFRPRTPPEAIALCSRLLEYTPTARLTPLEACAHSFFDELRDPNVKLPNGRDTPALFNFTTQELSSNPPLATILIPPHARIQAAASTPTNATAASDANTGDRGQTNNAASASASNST
Method: Human GSK3beta (expressed and prified from SF21 cells) is obtained from the University Dundee/Scotland (Dr. James Hastie—Dept. of Biochemistry) in 50 mM Tris (pH7.5); 150 mM NaCl; 0.1 mM EGTA, 270 mM Succrose, 0.1% β-mercaptoethanol, 1 mM benzamidine, 0.2 mM PMSF; sequence see below). The enzyme is diluted to 3.56 μM (168 μg/ml) in enzyme dilution buffer and 6 μl aliquots are stored at −80° C.
The activity of GSK3 kinase protein is measured using the Z′-LYTETM assay technology from Invitrogen (# PV3324).
The assay is performed in 384 black plates from Corning (#3676) in a final volume of 10 μl by adding 5 μl of kinase peptide mix and 2.5 μl of compound dilution. The reaction is started by addition of 2.5 μl of the 4×ATP solution.
Positive controls are reaction mixtures containing no test compound; negative controls (blanks) are reaction mixtures containing no ATP. As a further control, the phosphopeptide solution is added to wells without kinase and without ATP (=100% phosphorylation control).
The non inhibited kinase reaction will result in a phosphorylation corresponding to 20%-30% of the phosphorylation control.
The reaction is performed 1 h at room temperature. After 1h 5 μl of the development solution is added. After a further incubation for 1 h at room temperature 5 μl of the stop reagent is added. Finally the plates are read on a Flex Station II 384 (Molecular Devices).
The output text file is evaluated in an “MS-Excel—VB-Makro” and “GraphPadPrism” (Version 5) (GraphPad Software Inc.) is used to calculate the results. Data for the inhibition of GSK3beta are reported in M. data for the inhibition of the protease are reported in % CTL.

[4] = Table 1, read-out: FLT3-inhibition IC50-value
[5] = read-out: IC50 in μM (FLT3-Inhibition)
[6] = Table 1, read-out: AURB-inhibition IC50-value
[7] = read-out: IC50 in μM (AURB-Inhibition)
[8] = Table 1, read-out: SYK-inhibition IC50-value
[9] = read-out: IC50 in μM (SYK-Inhibition)

Sequence of FLT3 (P36888 27-993): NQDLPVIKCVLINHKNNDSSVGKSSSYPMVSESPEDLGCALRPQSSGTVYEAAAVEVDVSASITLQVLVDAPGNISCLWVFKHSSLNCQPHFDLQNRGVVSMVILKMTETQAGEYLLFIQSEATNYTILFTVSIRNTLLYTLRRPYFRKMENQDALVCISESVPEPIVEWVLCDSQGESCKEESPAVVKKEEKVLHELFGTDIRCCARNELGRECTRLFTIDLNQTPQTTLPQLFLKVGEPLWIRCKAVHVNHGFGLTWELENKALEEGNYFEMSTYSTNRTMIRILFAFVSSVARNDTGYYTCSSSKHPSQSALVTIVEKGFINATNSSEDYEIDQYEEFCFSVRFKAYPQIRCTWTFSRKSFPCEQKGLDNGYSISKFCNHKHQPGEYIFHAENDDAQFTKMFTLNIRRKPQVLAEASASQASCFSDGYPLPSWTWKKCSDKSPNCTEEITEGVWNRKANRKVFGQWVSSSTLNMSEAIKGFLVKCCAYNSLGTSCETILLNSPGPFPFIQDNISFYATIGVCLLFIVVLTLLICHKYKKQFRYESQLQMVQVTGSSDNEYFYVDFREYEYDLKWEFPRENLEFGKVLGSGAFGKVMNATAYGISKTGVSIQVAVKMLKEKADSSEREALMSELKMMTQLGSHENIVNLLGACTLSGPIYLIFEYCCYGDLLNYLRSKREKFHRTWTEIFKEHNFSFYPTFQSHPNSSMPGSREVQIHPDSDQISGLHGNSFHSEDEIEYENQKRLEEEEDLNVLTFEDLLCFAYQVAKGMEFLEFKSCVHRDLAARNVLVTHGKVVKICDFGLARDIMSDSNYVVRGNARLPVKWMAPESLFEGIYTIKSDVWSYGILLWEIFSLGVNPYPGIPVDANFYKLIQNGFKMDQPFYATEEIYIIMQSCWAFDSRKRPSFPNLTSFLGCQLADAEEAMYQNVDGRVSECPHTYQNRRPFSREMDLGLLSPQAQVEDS

Row | Compound | IC50 (FLT3; [4]) [µM] | IC50 (FLT3; [5]) [µM] | microsomal stability Cl [% Qh] [1] [% Qh] | IC50 [2, 6] [µM] | IC50 [2, 7] [µM] | IC50 [3, 8] [µM] | IC50 [3, 9] [µM] | IC50 (Human GSK3beta) [µM]
1 | COc1ccc(-c2cc3nn(C)cc3c(O[C@H](C)[C@H]3CNC(=O)C3)n2)cn1 [Example 59, (4R)-4-[(1R)-1-[6-(6-methoxy-3-pyridyl)-2-methyl-pyrazolo-[4,3-c]pyridin-4-yl]oxyethyl]-pyrrolidin-2-one] | 46.2 | 46.2 | <23 | > 50 | > 50 | 0.144 | 0.144 | > 10
2 | C[C@@H](Oc1nc(-c2ccc(C(F)(F)F)nc2)cc2nn(C)cc12)[C@H]1CNC(=O)C1 [Example 61, (4R)-4-[(1R)-1-[2-methyl-6-[6-(trifluoromethyl)-3-pyridyl]pyrazolo[4,3-c]pyridin-4-yl]oxyethyl]pyrrolidin-2-one] | 48.1 | 48.1 | <23 | > 50 | > 50 | 0.475 | 0.475 | > 10
3 | C[C@@H](Oc1nc(-c2ccc3cnn(C)c3c2)cc2nn(C)cc12)[C@H]1CNC(=O)C1 [Example 72, (4R)-4-[(1R)-1-[2-methyl-6-(1-methylindazol-6-yl)pyrazolo[4,3-c]pyridin-4-yl]oxyethyl]pyrrolidin-2-one] | 19.6 | 19.6 | <23 | > 50 | > 50 | 0.0526 | 0.0526 | 1.45

The next compounds have a lower IC50 (FLT3; [4]) than those just listed; values first:

Row | IC50 (FLT3; [4]) [µM] | IC50 (FLT3; [5]) [µM] | microsomal stability Cl [% Qh] [1] [% Qh] | IC50 [2, 6] [µM] | IC50 [2, 7] [µM] | IC50 [3, 8] [µM] | IC50 [3, 9] [µM] | IC50 (Human GSK3beta) [µM] | Compound
4 | 4.78 | 4.78 | <23 | > 50 | > 50 | 0.0193 | 0.0193 | > 10 | C[C@@H](Oc1nc(-c2ccc3c(cnn3C)c2)cc2nn(C)cc12)[C@H]1CNC(=O)C1 [Example 62, (4R)-4-[(1R)-1-[2-methyl-6-(1-methylindazol-5-yl)pyrazolo[4,3-c]pyridin-4-yl]oxyethyl]pyrrolidin-2-one]
5 | 1.68 | 1.68 | 34 | > 50 | > 50 | 0.0152 | 0.0152 | > 10 | C[C@@H](Oc1nc(-c2ccc(N3CCN(C)CC3)cc2)cc2nn(C)cc12)[C@H]1CNC(=O)C1 [Example 67, (4R)-4-[(1R)-1-[2-methyl-6-[4-(4-methylpiperazin-1-yl)phenyl]pyrazolo[4,3-c]pyridin-4-yl]oxyethyl]-pyrrolidin-2-one]
6 | 5.24 | 5.24 | <23 | 48.4 | 48.4 | 0.024 | 0.024 | > 10 | COc1cc(-c2cc3nn(C)cc3c(O[C@H](C)[C@H]3CNC(=O)C3)n2)ccc1OC(C)C [Example 81, (4R)-4-[(1R)-1-[6-(4-isopropoxy-3-methoxy-phenyl)-2-methyl-pyrazolo-[4,3-c]pyridin-4-yl]oxyethyl]-pyrrolidin-2-one]
